Calls of active or inactive are those of the source. The rule behind the calls is not given here.
Key:
[1] = Permeability across human Caco2 cells; type: ADME, cell-based; details: Caco-2, read-out: Kp
[2] = molecular target: T1, 5-hydroxytryptamine receptor 4 (Homo sapiens, UniProt Q13639); test: Intrinsic activity at human 5HT4C receptor expressed at 100 fold physiological-level in HEK293 cells assessed as cAMP accumulation relative to 5HT; type: functional, cell-based
[3] = organism: Homo sapiens; test: Selectivity ratio of Ki for human 5HT3A receptor to Ki for human 5HT4C receptor
[4] = molecular target: T1, 5-hydroxytryptamine receptor 4; test: Agonist activity at human 5HT4C receptor expressed at 100 fold physiological-level in HEK293 cells assessed as cAMP accumulation; type: functional, cell-based
[5] = molecular target: T1, 5-hydroxytryptamine receptor 4; test: biochemical
Description: Displacement of [3H]GR113808 from human recombinant 5HT4C receptor expressed in HEK293 cells

[6] = Half life in rat liver microsomes; type: ADME, Microsome; details: liver microsomes
[7] = Cmax in Sprague-Dawley rat at 5 mg/kg, po; type: ADME, organism-based; design: dose 5 mg/kg, route oral; details: in vivo
[8] = AUC (0 to t) in Sprague-Dawley rat at 5 mg/kg, po; type: ADME, organism-based; design: dose 5 mg/kg, route oral; details: plasma
[9] = Half life in Sprague-Dawley rat at 5 mg/kg, po; type: ADME, organism-based; design: dose 5 mg/kg, route oral; details: in vivo
[10] = Oral bioavailability in Sprague-Dawley rat at 5 mg/kg; type: ADME, organism-based; details: in vivo
[11] = molecular target: hERG (KCNH2) (Homo sapiens, UniProt Q12809); test: Inhibition of human ERG expressed in CHO cells at 3 uM; type: cell-based; details: CHO cells expressing human ERG
Chain of hERG (KCNH2) (Q12809 whole entry): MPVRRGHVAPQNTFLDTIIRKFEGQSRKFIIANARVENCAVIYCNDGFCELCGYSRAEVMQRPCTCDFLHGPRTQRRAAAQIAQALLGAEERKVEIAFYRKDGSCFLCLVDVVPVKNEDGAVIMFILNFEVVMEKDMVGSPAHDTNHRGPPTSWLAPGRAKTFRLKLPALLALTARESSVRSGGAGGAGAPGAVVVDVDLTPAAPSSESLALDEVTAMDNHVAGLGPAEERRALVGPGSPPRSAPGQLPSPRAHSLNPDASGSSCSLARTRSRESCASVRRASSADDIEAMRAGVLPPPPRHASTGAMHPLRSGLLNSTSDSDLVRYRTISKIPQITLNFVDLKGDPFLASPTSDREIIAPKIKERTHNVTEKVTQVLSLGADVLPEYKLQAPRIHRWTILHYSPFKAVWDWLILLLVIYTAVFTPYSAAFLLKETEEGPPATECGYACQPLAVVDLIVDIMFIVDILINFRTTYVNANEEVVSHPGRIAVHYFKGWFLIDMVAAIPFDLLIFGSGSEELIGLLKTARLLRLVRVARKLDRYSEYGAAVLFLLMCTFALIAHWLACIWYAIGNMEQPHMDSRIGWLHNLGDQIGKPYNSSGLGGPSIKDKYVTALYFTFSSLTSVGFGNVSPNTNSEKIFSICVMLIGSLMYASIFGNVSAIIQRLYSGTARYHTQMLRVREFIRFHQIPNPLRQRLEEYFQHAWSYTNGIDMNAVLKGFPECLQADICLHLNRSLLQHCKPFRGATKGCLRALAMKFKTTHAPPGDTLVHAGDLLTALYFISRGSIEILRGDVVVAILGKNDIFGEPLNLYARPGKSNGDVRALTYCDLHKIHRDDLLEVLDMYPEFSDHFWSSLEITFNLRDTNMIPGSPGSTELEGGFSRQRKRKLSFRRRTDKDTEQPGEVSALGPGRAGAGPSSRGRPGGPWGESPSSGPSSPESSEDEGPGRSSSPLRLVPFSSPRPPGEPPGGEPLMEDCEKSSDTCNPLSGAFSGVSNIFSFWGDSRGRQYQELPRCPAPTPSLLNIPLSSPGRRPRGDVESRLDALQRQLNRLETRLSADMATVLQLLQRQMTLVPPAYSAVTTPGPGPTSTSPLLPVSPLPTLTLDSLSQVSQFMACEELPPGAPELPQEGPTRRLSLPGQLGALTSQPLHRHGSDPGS

[12] = molecular target: T1, 5-hydroxytryptamine receptor 4; test: 5-HT4C receptor-mediated exchange of GDP for europium labeled GTP (pEC50)
[13] = molecular target: T1, 5-hydroxytryptamine receptor 4; test: 5-HT4C receptor-mediated exchange of GDP for europium labeled GTP (intrinsic activity)
[14] = molecular target: T1, 5-hydroxytryptamine receptor 4; test: Intrinsic activity at human 5HT4C receptor expressed in a cell line expressing receptor at 10 fold physiological-level assessed as cAMP accumulation relative to 5HT; type: functional
[15] = molecular target: T1, 5-hydroxytryptamine receptor 4; test: Agonist activity at human 5HT4C receptor expressed in a cell line expressing receptor at 10 fold physiological-level assessed as cAMP accumulation; type: functional
[16] = molecular target: 5-hydroxytryptamine receptor 4 (Cavia porcellus, UniProt O70528); test: Agonist activity at 5HT4 receptor in guinea pig colon assessed as longitudinal muscle plexus contraction
Chain of 5-hydroxytryptamine receptor 4 (Cavia porcellus, UniProt O70528) (O70528 whole entry): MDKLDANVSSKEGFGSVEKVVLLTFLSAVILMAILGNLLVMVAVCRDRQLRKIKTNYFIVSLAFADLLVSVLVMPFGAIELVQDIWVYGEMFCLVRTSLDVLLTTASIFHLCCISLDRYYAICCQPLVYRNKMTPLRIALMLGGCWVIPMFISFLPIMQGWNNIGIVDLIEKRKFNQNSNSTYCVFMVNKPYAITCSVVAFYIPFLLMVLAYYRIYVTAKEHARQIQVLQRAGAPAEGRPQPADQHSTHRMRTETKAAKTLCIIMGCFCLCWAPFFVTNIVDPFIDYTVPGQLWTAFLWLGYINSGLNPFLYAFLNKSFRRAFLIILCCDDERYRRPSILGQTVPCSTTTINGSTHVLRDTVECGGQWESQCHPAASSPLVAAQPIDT

[17] = test system: Cavia porcellus; test: Agonist activity at 5HT4 receptor in sc dosed guinea pig assessed as decrease in colonic transit time of carmine red dye after 60 mins relative to vehicle treated control; type: functional, organism-based

T1 sequence (Q13639 whole entry): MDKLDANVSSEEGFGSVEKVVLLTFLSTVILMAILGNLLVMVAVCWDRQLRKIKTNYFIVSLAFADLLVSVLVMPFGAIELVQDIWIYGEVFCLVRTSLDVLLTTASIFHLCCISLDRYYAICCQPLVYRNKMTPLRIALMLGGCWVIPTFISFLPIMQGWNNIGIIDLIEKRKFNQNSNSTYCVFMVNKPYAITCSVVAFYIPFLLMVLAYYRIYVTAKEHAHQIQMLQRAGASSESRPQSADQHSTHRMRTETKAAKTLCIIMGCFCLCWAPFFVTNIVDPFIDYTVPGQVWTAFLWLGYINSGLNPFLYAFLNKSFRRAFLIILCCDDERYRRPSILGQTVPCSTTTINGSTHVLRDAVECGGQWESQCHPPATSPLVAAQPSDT

EC50 [12] | Intrinsic activity [13] | Intrinsic activity [14] | pEC50 [15] | EC50 [16] | Activity [17] | SMILES | Papp [1] | Intrinsic activity [2] | Ratio Ki [3] | EC50 [4] | Ki [5] | half-life [6] | Cmax [7] | AUC(0-t) [8] | half-life [9] | bioavailability [10] | inhibition at 3 µM [11]
 |  |  |  |  |  | CC(C)n1nc(C(=O)N[C@H]2C[C@H]3CC[C@@H](C2)N3CC(O)CN2CCC(CNS(C)(=O)=O)CC2)c2ccccc21 (some centres not stated) | 1 ×10⁻⁶ cm/s | 93% | 19000 | 0.631 nM | 2.51 nM | > 1.5 h |  |  |  |  | 
 |  |  |  |  |  | CC(C)n1nc(C(=O)N[C@H]2C[C@H]3CC[C@@H](C2)N3C[C@@H](O)CN2CCN(S(C)(=O)=O)CC2)c2ccccc21 | 19 ×10⁻⁶ cm/s | 86% | 23000 | 0.398 nM | 2.51 nM | > 1.5 h | 35 ng/mL | 240 ng·h/mL | 7.4 h | 36% | 7%
 |  |  |  |  |  | CC(C)n1nc(C(=O)N[C@H]2C[C@H]3CC[C@@H](C2)N3CC(O)CN2CCN(S(C)(=O)=O)CC2)c2ccccc21 (some centres not stated) | 19 ×10⁻⁶ cm/s | 95% | 7300 | 0.794 nM | 3.98 nM | > 1.5 h |  |  |  |  | 4%
 |  |  |  |  |  | CC(C)n1nc(C(=O)N[C@H]2C[C@H]3CC[C@@H](C2)N3CCCCCCN2CCCCC2)c2ccccc21 |  | 102% | 12 | 2.51 nM | 1 nM |  |  |  |  |  | 
 |  |  |  |  |  | COC[C@@H]1CCCN1CC(O)CN1[C@@H]2CC[C@H]1C[C@@H](NC(=O)c1nn(C(C)C)c3ccccc13)C2 (some centres not stated) | 48 ×10⁻⁶ cm/s | 108% | 3000 | 2.51 nM | 3.98 nM | 1.25 h |  |  |  |  | 33%
 |  |  |  |  |  | CC(C)n1nc(C(=O)N[C@H]2C[C@H]3CC[C@@H](C2)N3CCN2CCN(S(C)(=O)=O)CC2)c2ccccc21 | 31 ×10⁻⁶ cm/s | 88% | 110 | 3.98 nM | 12.6 nM | > 1.5 h | 99 ng/mL | 260 ng·h/mL | 1.8 h | 48% | 9%
 |  |  |  |  |  | CC(C)n1nc(C(=O)N[C@H]2C[C@H]3CC[C@@H](C2)N3CC(O)CN2CCCCC2)c2ccccc21 (some centres not stated) | 30 ×10⁻⁶ cm/s | 85% | 13000 | 2 nM | 2 nM | > 1.5 h |  |  |  |  | 62%
 |  |  |  |  |  | COC[C@@H]1CCCN1CCCCCCN1[C@@H]2CC[C@H]1C[C@@H](NC(=O)c1nn(C(C)C)c3ccccc13)C2 |  | 117% | 14 | 0.794 nM | 0.794 nM |  |  |  |  |  | 
15.8 nM | 71% | 99% | 8.7 | 6.31 nM | inactive | CCCCCNC(=N)N/N=C/c1c[nH]c2ccc(OC)cc12 [TEGASEROD] |  | 115% | 580 | 1 nM |  |  |  |  |  |  | 33%

Source: ChEMBL document CHEMBL2057108 (Bioorg Med Chem Lett, 2012)
